In general, IC50 refers to the concentration needed to halve the response being measured.

Bounds are passed on as bounds.

This passage reports IC50 results from BindingDB's records for doi:10.7270/Q2W957MN (The Scripps Research Institute Molecular Screening Center, 2010).

This test concerns the target T1, Trans-activator protein BZLF1 (Epstein-Barr virus (strain B95-8), UniProt P03206).
T1 sequence (P03206 whole entry): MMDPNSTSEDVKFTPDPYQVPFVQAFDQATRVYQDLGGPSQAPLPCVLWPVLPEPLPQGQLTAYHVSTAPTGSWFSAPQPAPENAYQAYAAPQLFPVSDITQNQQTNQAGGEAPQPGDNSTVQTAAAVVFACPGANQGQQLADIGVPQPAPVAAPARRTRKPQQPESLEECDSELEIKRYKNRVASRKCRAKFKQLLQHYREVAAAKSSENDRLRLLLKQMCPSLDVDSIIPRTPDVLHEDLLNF
The experiment in a line: EBV ZTA inhibitors, dose response, counter-screen for EBNA-1 inhibitor project, biochemical, fluorescence polarization, Epstein-Barr virus, 1536-well (AID 2377). In general terms: The purpose of a counterscreen is to sort out artefacts and off-target activity.

`O=C(Nc1nc2cc3c(cc2s1)OCCO3)c1ccc(-n2c(O)ccc2O)cc1`: the midpoint of inhibition, the IC50, lay at 15.1 µM. The figure for `COc1ccc(-n2cc(O)c(-c3nc4ccccc4s3)c2N)cc1` is > 111 µM; for `COc1cc(-c2nc3n(n2)C(c2cccc(OC)c2OC)C2C(=O)CCCC2=N3)cc(OC)c1OC` (configuration not stated) it is > 111 µM; for `C=c1cc2[nH]c(=O)c(=Cc3cn(C)c4ccccc34)c(=N)n2o1` [(6Z)-7-imino-2-methyl-6-[(1-methylindol-3-yl)methylidene]-[1,2]oxazolo[2,3-a]pyrimidin-5-one] it is > 111 µM. For `COc1cccc(-n2cc(O)c(-c3nc4ccccc4c(=O)[nH]3)c2N)c1` [MLS000075886], the IC50 is > 111 µM. The figure for `O=[N+]([O-])c1cccc(CN=Nc2nc(NCc3ccccc3)nc(N3CCOCC3)n2)c1` [SMR000174986] is > 111 µM; for `CN1C(=O)/C(=N\NC(=O)c2cc(-c3cccs3)nc3ccccc23)c2ccccc21` [SMR000242891] it is > 111 µM.
